For data set [1], the system named is prostate cancer 22Rv1 cells. Description: Cell proliferation inhibition activity assay (CCK-8 method), 22Rv1. It counts as cell-based.
Another data set addresses T1, DYRK2 kinase (Homo sapiens, UniProt Q92630).
T1 sequence (Q92630 1-601): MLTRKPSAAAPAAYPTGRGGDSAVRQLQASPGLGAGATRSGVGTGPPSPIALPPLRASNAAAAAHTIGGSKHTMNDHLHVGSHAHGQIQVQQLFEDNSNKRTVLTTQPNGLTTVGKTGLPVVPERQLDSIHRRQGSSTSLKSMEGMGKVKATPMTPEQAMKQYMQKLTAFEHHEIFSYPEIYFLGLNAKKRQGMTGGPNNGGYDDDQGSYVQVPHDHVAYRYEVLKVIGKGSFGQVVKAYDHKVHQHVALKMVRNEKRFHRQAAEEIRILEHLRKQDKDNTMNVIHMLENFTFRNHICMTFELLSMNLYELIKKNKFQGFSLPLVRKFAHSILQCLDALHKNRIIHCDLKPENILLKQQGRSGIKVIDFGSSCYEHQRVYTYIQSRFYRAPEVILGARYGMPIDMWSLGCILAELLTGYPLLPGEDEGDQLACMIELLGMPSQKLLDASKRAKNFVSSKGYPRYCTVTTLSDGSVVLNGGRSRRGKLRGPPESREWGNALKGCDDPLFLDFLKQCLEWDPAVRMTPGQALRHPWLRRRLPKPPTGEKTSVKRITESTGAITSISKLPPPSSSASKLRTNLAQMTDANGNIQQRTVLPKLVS
Description: DYRK2 kinase activity analysis assay (33P-ATP, DYRKtide substrate, P81 filter paper). The following applies: 2 hours at room temperature. It counts as biochemical.

The subject of data set [2] is prostate cancer DU145 cells. Description: Cell proliferation inhibition activity assay (CCK-8 method), DU145. It counts as cell-based. For orientation: Tetrazolium assays rely on reduction of a dye to a coloured formazan, in cell work by metabolically active cells.
The subject of another data set is ICR mice. Description: Acute toxicity test, single gavage, 14 days observation. It counts as in vivo.
Data set [3] deals with human prostate cancer cell DU145 xenografts in nude mice. Description: In vivo efficacy assay against prostate cancer (DU145 xenograft). More on the design: species or system BALB/c nude mice. The following applies: Example 20 study, 21 days; for T/C(%) / tumor inhibition rate: DU145 xenograft; for body weight of nude mice during dosing: each group, once a day.

Like-named read-outs stand apart in the source and are kept apart here.

With `Cl.O=C(c1ccc(Nc2ncc(F)c(-c3ccc4scnc4c3)n2)nc1)N1CCNCC1` [Example 20, (6-((4-(benzothiazole-5-yl)-5-fluoropyrimidine-2-yl)amino)pyridine-3-yl)(piperazine-1-yl)ketone hydrochloride], the half-inhibitory concentration (IC50) – broadly, the concentration that inhibits the measured activity by half – in data set [1] (Homo sapiens, 22Rv1 cells, 72 hours, CCK8) amounted to 2.55 ± 0.046 µM; on DYRK2 kinase (read-out: IC50), 0.6 nM; in data set [2] (Homo sapiens, DU-145, DU145 cells, 72 hours, CCK8), 3.25 ± 0.06 µM. In addition, in data set [1] (result in words), the “inhibition of proliferation of prostate cancer 22Rv1 cell” value is “significantly inhibit”. Moreover, the “inhibition of proliferation of prostate cancer DU145 cell” value in data set [2] (result in words) was “significantly inhibit”. In addition, in the data set with ICR mice (gavage once, 1000, 2500, 5000 and 10000 mg/kg, day 14), the “death of animals after day 14 of dosing” value was “no animals died”. The “weight of main organs (heart, liver, spleen, lung, kidney) versus control group” value in the data set with ICR mice (gavage once, 1000, 2500, 5000 and 10000 mg/kg, dissection after 14 days) was “no difference in the weight of main organs”. Besides, the abnormality after dosing entry in the data set on ICR mice (gavage once, 1000, 2500, 5000 and 10000 mg/kg, within 12 hours after dosing) is “no abnormality was observed”. Besides, in the data set with ICR mice (gavage once, 1000, 2500, 5000 and 10000 mg/kg, within 24 hours), the “death of animals within 24 hours of dosing” value is “No animals died”. Moreover, in the data set on ICR mice (gavage once, up to 10000 mg/kg), the “toxic or side effects (overall conclusion)” value was “no obvious toxic or side effects”. The “T/C(%)” value is recorded as 50.9% in data set [3] (100 mg/kg once a day) and 34.4% in data set [3] (high dose 200 mg/kg once a day). The tumor inhibition rate in data set [3] (100 mg/kg once a day) worked out at 48.7%; in data set [3] (high dose 200 mg/kg once a day), 65.3%. Besides, the “body weight of nude mice during dosing” value in data set [3] is listed as “no significant decrease in body weight”.

As for `CCN(CC)c1nc2cc(-c3nc(Nc4ccc(C(=O)N5CCN(C(C)C)CC5)nc4)ncc3F)ccc2s1` [Example 34, (5-((4-(2-(diethylamino)benzothiazole-5-yl)-5-fluoropyrimidine-2-yl)amino)pyridine-2-yl)(4-isopropylpiperazine-1-yl)ketone], the IC50 on DYRK2 kinase (read-out: IC50) amounted to 45 nM.

`CC(=O)N1CCN(C(=O)c2ccc(Nc3ncc(F)c(-c4ccc5nc(N(C)C)sc5c4)n3)nc2)CC1` [Example 35, 1-(4-(6-((4-(2-(dimethylamino)benzothiazole-6-yl)-5-fluoropyrimidine-2-yl)amino)nicotinoyl)piperazine-1-yl)ethyl-1-one] displayed an IC50 against DYRK2 kinase (IC50 (nM)) of 22 nM.

With `CN(C)c1nc2ccc(-c3nc(Nc4ccc(C(=O)N5CCN(C(=O)C6CC6)CC5)cn4)ncc3F)cc2s1` [Example 36], half-maximal inhibition at DYRK2 kinase (IC50 (nM)) (IC50) required 16 nM.

At DYRK2 kinase (IC50 (nM)), `CN(C)c1nc2ccc(-c3nc(Nc4ccc(C(=O)N5CCN(c6ccccc6)CC5)cn4)ncc3F)cc2s1` [Example 37, (6-((4-(2-(dimethylamino)benzothiazole-6-yl)-5-fluoropyrimidine-2-yl)amino)pyridine-3-yl)(4 - arylpiperazine-1-yl)ketone] came in with an IC50 of 683 nM.

In the case of `CCOC(=O)N1CCN(C(=O)c2ccc(Nc3ncc(F)c(-c4ccc5nc(N(C)C)sc5c4)n3)nc2)CC1` [Example 38, ethyl 4-(6-((4-(2-(dimethylamino)benzothiazole-6-yl)-5-fluoropyrimidine-2-yl)amino)nicotinoyl)piperazine-1-carboxylate], the IC50 on DYRK2 kinase (read-out: IC50) was found to be 91 nM.

With `CNC(=O)c1ccc(N2C(=S)N(c3ccc(C#N)c(C(F)(F)F)c3)C(=O)C2(C)C)cc1F` [enzalutamide, reference compound], in data set [3] (100 mg/kg once a day), the “T/C(%)” value was 42.0% and the tumor inhibition rate stood at 57.8%. Further, in data set [3], the “body weight of nude mice during dosing” value is listed as “no significant decrease in body weight”.
